Results reported in publication PMC8776894 (Communications Biology, 2022).
Where “and” joins values, the source holds several entries; their conditions need not be identical. Equal entries are not always repeated. Where two headings read alike, the source gives them in different places.

Assays:
MCAO/R mice [1] = assay: MRI of cerebral infarction after MCAO/R; assay type: in vivo, mouse; conditions: VK 300 i.p. at 0, 4, 22.5, 46.5 h, T2-weighted
Experimental: After MCAO/R, mice were treated with VK ([…], i.p.) at 0, 4, 22.5, and 46.5 h. Mice were deeply anesthetized with 1.5% isoflurane in a mixture of 30% O2 and 69% N2O. The magnetic resonance imaging (MRI) experiments were performed on a horizontal bore 9.4 Tesla scanner operating on a Bruker Avance platform (Bruker 9.4 T Biospec). T2-weighted imaging was used to evaluate the infarct volume. Three mutually perpendicular images were obtained to localize the infarction site. Then, 13–15 T2-weighted axial slices (1 mm thick) covering the entire damage area (field of view = 30 × 30 mm, matrix size = 256 × 256, echo time^3 = 33 ms, repetition time[68] = 3500 ms) were acquired by a spin-echo pulse sequence to delineate anatomical details and calculate qualitative T2 maps[69].

MCAO/R mice [2] = assay: Grip test; assay type: in vivo, mouse; set-up: grip test (Fig.2g): unit not given here; conditions: for grip test (Fig.2g): individual animals
Experimental: The grip strength (The Chatillon® DFE Digital Force Gauge DFX-050) was used to evaluate the effects of VK on muscular incoordination of mice. The forelimbs of the mice were placed on the test grid and the mice were gently pulled after the animals were grasped and the force value when the claws of the animals were recorded was the grip value. The test was performed at 24 and 48 h after MCAO/R.

MCAO/R mice [3] = assay: Morris water maze test; assay type: in vivo, mouse; conditions: for Morris water maze latency to the platform (sheet block Fig.2h): individual animals
Experimental: To evaluate the spatial learning and memory ability of mice, the Morris water maze was performed after MCAO/R at 11, 12, 13, 14, and 15 days as described previously with minor modifications[66],[67]. […] Three trials were performed per day with the platform present and continuously detected for 4 days. Data from those trials were shown as the latency to locate the hidden platform on each day and were in indirect proportion to spatial learning abilities. A single 60 s probe test was performed on each mouse on the final day of testing. The platform was withdrawn and each mouse was placed at the same starting position in the pool and allowed to swim for 60 s. The investigator then recorded the time spent in the target quadrant, where the platform had previously been located. The latter measurements were interpreted as spatial memory.

[4] = test system: MCAO/R mice, brain homogenate; assay: Biochemical kits, energy metabolism in brain (ATP, lactic acid); assay type: in vivo, mouse
Experimental: Mice were sacrificed under ether anesthesia 3 days after stroke. The brain was collected, weighed, and placed in a homogenizer for homogenization. Using 0.9% normal saline (NS) as a homogenization medium, a 10% tissue homogenate was prepared, centrifuged at 3500 rpm for 10 min, and the supernatant was taken. […] Kits for ATP, glutamic acid, glutathione, lactic acid, LPO, MDA, and SOD were purchased from Nanjingjiancheng Bioengineering Institute, and were measured as previously described for specification.

MCAO/R mice [5] = assay: Evans blue extravasation, BBB permeability; assay type: in vivo, mouse; set-up: EB content in damaged (right) hemisphere (Fig.4): unit not given here; conditions: for EB content in damaged (right) hemisphere (Fig.4): individual animals
Experimental: Fig. 4 Protective effect of VK on the blood–brain barrier (BBB) in stroke mice. a Experimental design: in addition to the sham group, mice (8–10 weeks, male) were subjected to MCAO for 60 min. Mice were randomized into four groups: sham group, vehicle group, and VK (150 and 300 µg/kg) groups. Mice were administered VK at 0, 4, 22.5, and 46.5 h after MCAO/R and BBB integrity was assessed by Evans blue (EB) and transmission electron microscope (TEM). b Brain samples were stained with EB. c EB content in damaged (right) hemisphere was quantized. d Schematic of BBB. The BBB mainly consists of endothelial cells (EC), pericytes (PC), astrocytes (Ast), neurons, tight junctions (TJs), and the basement membranes (BM). The main components of the BBB are cerebral microvascular ECs joined by TJs, thus restricting exogenous molecules into the brain. e The structure of the BBB was observed by TEM. In the sham group (e1–3), the capillary morphology was regular, the EC and TJ were complete, the thickness of the BM was uniform and continuous around the outside of EC, and the structure of mitochondria (Mt) was clear. […] The marks with different symbols indicate the constituent cells or matrix of the BBB. Scale bars: 2 µm. Data are expressed as the mean ± SD, n = 5. Values were analyzed using one-way analysis of variance (ANOVA) with the Tukey multiple comparisons test.

[6] = test system: IL-1β, TNF-α, IL-6, IL-8, IL-10 in serum; assay: Cytokine ELISA in serum; assay type: in vivo, mouse; conditions: MCAO/R mice, 48 h
Experimental: Mice were decapitated under anesthesia at 48 h after MCAO/R. The IL-1β (Cat# 88-5019-88), TNF-α (Cat# 88-7324-22), IL-6 (Cat# 88-7064-88), and IL-8 (Cat# 88-8086-22) were purchased from Thermo Fisher Scientific. The levels of these proteins were measured by enzyme-linked immune sorbent assays (ELISA) kits, according to the manufacturer’s recommendations.

[7] = test system: neurons in brain of MCAO/R mice; assay: NeuN immunohistochemistry; assay type: in vivo, mouse
[8] = test system: pyramidal neurons of mouse neocortex; assay type: in vivo; conditions: for Fig.6g mEPSC amplitude per recorded neuron: individual values

Gly-Arg-Pro-Hyp-Gly-Phe-Ser-Pro-Phe-Arg-Ile-Asp [VK, Vespakinin-M]
area of cerebral infarction, MRI (MCAO/R mice [1]): reduced the area of cerebral infarction
grip test (Fig.2g) (MCAO/R mice [2]; VK 150 µg/kg i.p.): 103 and 99.5 and 136 and 78 and 61.1 and 99 and 115.7
grip test (Fig.2g) (MCAO/R mice [2]; VK 300 µg/kg i.p.): 116.6 and 26 and 19.5 and 56.2 and 63.2 and 77 and 80.9
sensorimotor function, grip test (MCAO/R mice [2]; VK 150 and 300 µg/kg i.p.): improved functional performance and ameliorated the sensorimotor asymmetry
Morris water maze latency to the platform (sheet block Fig.2h) (MCAO/R mice [3]; 11d after MCAO/R, VK 150 µg/kg, 60 s maximum): 46.96 and 55.37 and 56.98 and 48.52 and 58.61 and 60 and 58.12
Morris water maze latency to the platform (sheet block Fig.2h) (MCAO/R mice [3]; 11d after MCAO/R, VK 300 µg/kg, 60 s maximum): 51 and 55.8
Morris water maze latency to the platform (sheet block Fig.2h) (MCAO/R mice [3]; 12d after MCAO/R, VK 150 µg/kg): 35.17 and 36.55 and 38.29 and 31.14 and 35.03 and 46.91 and 50.97
Morris water maze latency to the platform (sheet block Fig.2h) (MCAO/R mice [3]; 12d after MCAO/R, VK 300 µg/kg): 43.25 and 49.34 and 39.87 and 44.13 and 49.62 and 33.65
Morris water maze latency to the platform (sheet block Fig.2h) (MCAO/R mice [3]; 13d after MCAO/R, VK 150 µg/kg): 12.69 and 22.64 and 25.57 and 20.24 and 33.84 and 30.46 and 33.85
Morris water maze latency to the platform (sheet block Fig.2h) (MCAO/R mice [3]; 13d after MCAO/R, VK 300 µg/kg): 24.06 and 46.35 and 29.58 and 38.44 and 42.39 and 44
Morris water maze latency to the platform (sheet block Fig.2h) (MCAO/R mice [3]; 14d after MCAO/R, VK 150 µg/kg): 8.5 and 15.36 and 20.6 and 19.38 and 15.89 and 10.11 and 29.75
Morris water maze latency to the platform (sheet block Fig.2h) (MCAO/R mice [3]; 14d after MCAO/R, VK 300 µg/kg): 18.28 and 40.48 and 16.15 and 23.59 and 39.68 and 25.37
spatial learning, escape latency (MCAO/R mice [3]; day 11–14 after MCAO/R): decreased escape latency
spatial memory, probe trial vs vehicle (MCAO/R mice [3]; day 15 after MCAO/R): more crossovers and spent more time in the platform quadrant
LD content in brain vs vehicle [4]: lower LD content
ATP activity in brain vs vehicle ([4]; VK-treated groups): increased ATP activity
EB content in damaged (right) hemisphere (Fig.4) (MCAO/R mice [5]; VK 150 µg/kg i.p.): 0.6116 and 3.907 and 2.036 and 0.849 and 0.3932
EB content in damaged (right) hemisphere (Fig.4) (MCAO/R mice [5]; VK 300 µg/kg i.p.): 0.754 and 0.4027 and 0.5261 and 1.381 and 3.67
BBB permeability, EB extravasation (MCAO/R mice [5]; VK 150 and 300 µg/kg): reversed the effect of MCAO-induced on BBB permeability
IL-10 level in serum vs vehicle [6]: increase in IL-10 levels
IL-1β, TNF-α, IL-6 and IL-8 levels in the peripheral (serum) vs vehicle ([6]; VK 150 and 300 µg/kg): decreased IL-1β, TNF-α, IL-6, and IL-8 levels
number of NeuN-positive cells [7]: greater than that in the vehicle-treated group
action potential threshold of pyramidal neurons vs vehicle ([8]; 48 h after MCAO): higher action potential threshold
Fig.6g mEPSC amplitude per recorded neuron ([8]; VK150, n = 14): 19.084 pA and 16.328 pA and 11.543 pA and 20.277 pA and 16.752 pA and 17.611 pA and 14.33 pA and 14.518 pA and 18.178 pA and 20.574 pA and 16.408 pA and 17.172 pA and 18.064 pA and 16.721 pA
Fig.6g mEPSC amplitude per recorded neuron ([8]; VK300, n = 18): 16.409 pA and 16 pA and 15.374 pA and 15.042 pA and 15.977 pA and 15.473 pA and 16.722 pA and 19.242 pA and 17.388 pA and 16.685 pA and 16.328 pA and 14.712 pA and 16.978 pA and 16.137 pA and 19.209 pA and 18.238 pA and 16.732 pA and 16.833 pA
amplitude of mEPSCs ([8]; after stroke in mice): no obvious effects on the amplitude of mEPSCs
